# According to US20080031811A1, “Method For Preparing Radioactive Film” (DONG WHA PHARM. IND. CO., LTD., priority 2004, published 2008):
# Experiment: Thermal characteristic of film (TGA)
# Type: physicochemical
# Conditions: measured at 500° C.
# Method: The behavior of thermal change according to temperature change in holmium nitrate, polyurethane film, and holmium-165 polyurethane film (Example 13) is measured by using a thermogravimetric analyzer (TGA, […], Germany) and a differential scanning calorimetry (DSC, […], Germany). TGA analyzes the changes in the mass of a substance according to temperature by a thermal decomposition curve. The analysis conditions of TGA are as follows; 30˜600° C. of temperature, 5.0 mg of a substance, 10° C./min of heating rate. Calorie change of a substance according to temperature change is measured by DSC. DSC is measured at the same condition as TGA and the sample is sealed in an aluminum pan under nitrogen atmosphere.
compound,measurement,value
"O=[N+]([O-])[O-].O=[N+]([O-])[O-].O=[N+]([O-])[O-].[Ho+3] [holmium nitrate, ^165Ho(No3)3.5H2O]",Residual weight % after decomposition,37%
